Test results as given in EP1159267B1, “N-SUBSTITUTED INDOLINES AS ESTROGENIC AGENTS” (Wyeth, priority 1999, dated 2000).
pIC50: −log10 of the molar value. Where a name gives a salt, the structure may show the parent alone.

Target: T1, estrogen receptor (ER) (Homo sapiens, UniProt P03372)
T1 construct: expressed in transfected cells; host or cells: CHO cells (ribosome-free cytosol)
T1 sequence (P03372 1-595): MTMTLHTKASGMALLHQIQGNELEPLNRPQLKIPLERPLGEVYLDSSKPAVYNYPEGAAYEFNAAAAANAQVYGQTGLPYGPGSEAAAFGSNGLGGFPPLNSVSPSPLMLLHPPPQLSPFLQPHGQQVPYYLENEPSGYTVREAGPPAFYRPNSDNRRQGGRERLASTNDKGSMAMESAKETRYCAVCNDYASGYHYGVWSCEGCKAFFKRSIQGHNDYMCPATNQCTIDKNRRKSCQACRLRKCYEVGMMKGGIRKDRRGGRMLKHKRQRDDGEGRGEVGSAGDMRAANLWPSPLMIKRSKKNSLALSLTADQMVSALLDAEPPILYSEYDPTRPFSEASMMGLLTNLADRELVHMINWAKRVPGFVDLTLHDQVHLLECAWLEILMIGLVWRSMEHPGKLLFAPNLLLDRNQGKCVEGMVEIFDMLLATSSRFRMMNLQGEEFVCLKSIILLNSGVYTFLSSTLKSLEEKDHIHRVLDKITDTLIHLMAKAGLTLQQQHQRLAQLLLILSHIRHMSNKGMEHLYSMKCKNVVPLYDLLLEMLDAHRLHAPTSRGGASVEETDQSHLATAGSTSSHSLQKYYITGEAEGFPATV
Experiment: Receptor Binding Assay (competition with [3H]17β-estradiol)
Conditions: cytosol of CHO cells overexpressing the estrogen receptor; 0.8 nM [3H]17β-estradiol; 12 competitor concentrations; room temperature, 2.5 h

pIC50	Structure (SMILES)
6.10	CC1(C)c2cc(O)ccc2N(Cc2ccc(OCCN3CCCCC3)cc2)C1c1ccccc1 (stereo not shown) [Example No. 4, 3,3-dimethyl-2-phenyl-1-[4-(2-piperidin-1-yl-ethoxy)-benzyl]-2,3-dihydro-1H-indol-5-ol (HCl)]
6.00	CC1(C)c2cc(O)ccc2N(Cc2ccc(OCCN3CCCCCC3)cc2)C1c1ccccc1 (stereo not shown) [Example No. 6, 1-[4-(2-Azepan-1-yl-ethoxy)-benzyl]-3,3-dimethyl-2-phenyl-2,3-dihydro-1H-indol-5-ol]
6.51	CC1(C)c2cc(O)ccc2N(Cc2ccc(OCCN3CCCCC3)cc2)C1c1ccc(O)cc1 (stereo not shown) [Example No. 9, 2-(4-Hydroxy-phenyl)-3,3-dimethyl-1-[4-(2-piperidin-1-yl-ethoxy)-benzyl]-2,3-dihydro-1H-indol-5-ol]
6.46	CC1(C)c2cc(O)ccc2N(Cc2ccc(OCCN3CCCCCC3)cc2)C1(c1ccccc1)c1ccc(O)cc1 (stereo not shown) [Example No. 11, 1-[4-(2-Azepan-1-yl-ethoxy)-benzyl]-2-(4-hydroxy-phenyl)-3,3-dimethyl-2-Phenyl-2,3-dihydro-1H-indol-5-ol]
